Data: publication PMC8001558 (Viruses, 2021)
Like-named read-outs stand apart in the source and are kept apart here.

What was measured:
MNV07 P-domain = assay type: binding
[1] = tested on: GII.4 VA387 (N/N) P-dimers; assay type: binding; settings: CSP NMR; buffer B: 75 mM sodium phosphate, 100mM NaCl (pH 7.3); 170 µM protein; 298 K; listed as 3′SL
VA387 P-dimers = tested on: VA387 P-dimers; design: method as in ref 31 = [31]; settings: MS based data; cited from earlier work
[2] = target: GII.4 Saga (N/N) P-dimers (Norovirus GII.4, UniProt B5BTR7); assay: biochemical; assay type: binding
[3] = target: GII.4 MI001 (N/N) P-dimers (Norovirus Hu/GII.4/MI001/2011/USA, UniProt S5FWF8); assay: biochemical; assay type: binding; settings: CSP NMR titration; 75 mM sodium phosphate, 100 mM NaCl (pH 7.3); 220 µM protein
GII.4 Saga (P-domain) = GII.4 Saga (P-domain) (Norovirus GII.4, UniProt B5BTR7); assay: Re-evaluation of previously reported STD NMR titrations, one-site binding model; design: species or system human norovirus (HuNoV)
GII.10 P-dimers = target: GII.10 P-dimers; design: method as in ref 28 = [28]; settings: STD NMR titrations stopped at first step of the curve; cited from earlier work
MNV CW1 P-domain = MNV CW1 P-domain (Norovirus, UniProt Q80J94, K296E); assay: CSP NMR binding experiment with MNV P-domain; design: species or system murine norovirus (MNV); settings: MNV P-domains saturated with GCDCA
[4] = target: P-domain of the VP1 capsid protein of human norovirus GII.4 strain MI001 (human norovirus GII.4 strain MI001)
[5] = target: P-domain of the VP1 capsid protein of human norovirus GII.4 strain VA387 (human norovirus GII.4 strain VA387)
[6] = target: P-domain of the VP1 capsid protein of murine norovirus strain MNV07 (murine norovirus strain MNV07)
[7] = 25 mM Tris-d11 pH* 7.40, 300 mM NaCl, 298 K, refit of titration data of ref [2], read-out: KD in mM (reevaluated)

Work on `C[C@@H]1O[C@@H](O[C@@H]2[C@@H](O[C@H]3O[C@H](CO)[C@H](O)[C@H](O)[C@H]3O)[C@@H](O)[C@@H](CO)O[C@@H]2N=[N+]=[N-])[C@@H](O)[C@H](O)[C@@H]1O` (hydrate or solvate) [B-Tri 3, blood group B trisaccharide (azido group at the anomeric position)] yielded a melting point of 204 to 206 °C.

For `CC(=O)N[C@H]1[C@H]([C@H](O)[C@H](O)CO)O[C@@](O[C@H]2[C@@H](O)[C@@H](CO)O[C@@H](O[C@H]3[C@H](O)[C@@H](O)[C@H](O)O[C@@H]3CO)[C@@H]2O)(C(=O)O)C[C@@H]1O` [3′SL 6, 3′-sialyllactose], the “binding (tested negative/positive)” value (MNV07 P-domain; STD, buffer B (20 mM sodium acetate, 100 mM NaCl, pH 5.3), with GCDCA, no EDTA, no Ca2+, listed as 3′SL) is listed as “no saturation transfer”, the “binding (tested negative/positive)” value [1] is listed as “no binding” and the “binding to VA387 P-dimers” value (VA387 P-dimers) is listed as “neither 3′-sialyllactose nor 6′-sialyllactose bind”.

In the case of `CC(=O)N[C@H]1[C@H]([C@H](O)[C@H](O)CO)O[C@@](OC[C@H]2O[C@@H](O[C@H]3[C@H](O)[C@@H](O)[C@H](O)O[C@@H]3CO)[C@H](O)[C@@H](O)[C@H]2O)(C(=O)O)C[C@@H]1O` [6′-sialyllactose, reference compound], the “binding to VA387 P-dimers” value (VA387 P-dimers) is listed as “neither 3′-sialyllactose nor 6′-sialyllactose bind”.

`CC(=O)N[C@H]1[C@@H](O[C@H]2[C@@H](O)[C@@H](CO)O[C@@H](O)[C@@H]2O[C@@H]2O[C@@H](C)[C@@H](O)[C@@H](O)[C@@H]2O)O[C@H](CO)[C@H](O)[C@@H]1O` [A-Tri 2, blood group A trisaccharide] showed a Kd [2] of 4.3 ± 0.4 mM.

Compound `C[C@@H]1O[C@@H](O[C@@H]2[C@@H](O[C@H]3O[C@H](CO)[C@H](O)[C@H](O)[C@H]3O)[C@@H](O)[C@@H](CO)O[C@@H]2N=[N+]=[N-])[C@@H](O)[C@H](O)[C@@H]1O` [B-Tri 3, blood group B trisaccharide (azido group at the anomeric position)] has a Kd [3] of 4.3 ± 0.4 mM.

In the case of `O=C(O)CC(O)(CC(=O)O)C(=O)O` [Citrate, reference compound], the Kd (GII.4 Saga (P-domain); KD in mM (reevaluated)) is listed as 22.9 ± 2.7 mM and the dissociation constants (GII.10 P-dimers) is listed as “sub millimolar”.

Compound `CO[C@@H]1O[C@@H](C)[C@@H](O)[C@@H](O)[C@@H]1O` [Fuc 8, methyl α-L-fucopyranoside] has a Kd (GII.4 Saga (P-domain); 25 mM BisTris-d19 pH* 6.5, 300 mM NaCl, 298 K, refit of titration data of ref [2], read-out: KD in mM (reevaluated)) of 15.1 ± 1.6 mM, a Kd (GII.4 Saga (P-domain); 25 mM PBS pH* 5.50, 300 mM NaCl, 298 K, refit of titration data of ref [2], read-out: KD in mM (reevaluated)) of 21.9 ± 2.6 mM and a Kd (GII.4 Saga (P-domain); 25 mM PBS pH* 6.50, 300 mM NaCl, 298 K, refit of titration data of ref [2], read-out: KD in mM (reevaluated)) of 18.4 ± 2.6 mM. For the same compound, the Kd (GII.4 Saga (P-domain); 25 mM PBS pH* 7.40, 300 mM NaCl, 298 K, refit of titration data of ref [2] (Mallagaray et al., Angew Chem Int Ed 2015), read-out: KD in mM (reevaluated)) was 15.6 ± 1.9 mM and the Kd (GII.4 Saga (P-domain); 25 mM sodium acetate-d3, pH* 4.50, 300 mM NaCl, 298 K, refit of titration data of ref [2], read-out: KD in mM (reevaluated)) was 24.5 ± 4.1 mM.

In the case of `CC(CCC(=O)NCC(=O)O)C1CCC2C3C(O)CC4CC(O)CCC4(C)C3CCC12C` (centres unmarked) [GCDCA, glycochenodeoxycholic acid, reference compound], the “STD effects (saturation transfer to ligand)” value (MNV07 P-domain; 80 µM protein, 20 mM sodium acetate buffer (pH 5.3), 250 µM GCDCA, 2 mM 3′SL, 298 K, 600 MHz) is reported as “show STD effects”.

`CO[C@@H]1O[C@H](CO)[C@H](O)[C@H](O)[C@H]1O[C@@H]1O[C@@H](C)[C@@H](O)[C@@H](O)[C@@H]1O` [H-Dis 12, blood group H-disaccharide] gave a Kd (GII.4 Saga (P-domain); [7]) of 26.5 ± 2.7 mM.

For `C[C@H](O)[C@@H](O)[C@@H](O)[C@H](O)C=O` [L-fucose], the dissociation constants (GII.10 P-dimers) is listed as “sub millimolar”.

In the case of `[Cl-].[Cl-].[Mg+2]` [Mg^2+], the “binding of bivalent metal ions” value (MNV CW1 P-domain) is reported as “detected binding”.

In the case of `[Mn+2]` [Mn^2+], the “binding of bivalent metal ions” value (MNV CW1 P-domain) is reported as “detected binding”.

For `CO[C@@H]1O[C@H](CO)[C@H](O)[C@H](O[C@H]2O[C@H](CO)[C@H](O)[C@H](O)[C@H]2O)[C@H]1O[C@@H]1O[C@@H](C)[C@@H](O)[C@@H](O)[C@@H]1O` [b -Methyl glycoside of B-trisaccharide, reference compound], the Kd (GII.4 Saga (P-domain); [7]) was 5.2 ± 0.5 mM.

In the case of “P-domain of the VP1 capsid protein of human norovirus GII.4 strain MI001 (domain or fragment)”, the stoichiometry N [4] is reported as 2.

With “P-domain of the VP1 capsid protein of human norovirus GII.4 strain VA387 (domain or fragment)” the stoichiometry N [5] was 2.

For “P-domain of the VP1 capsid protein of murine norovirus strain MNV07 (domain or fragment)”, the stoichiometry N [6] was 2.
